Data published in patent publication US4195023A, “2-(2-Furoyl)1,2-benzisothiazole-3-one, 2-(2-furoyl) saccharin, and 2-(2-thenoyl) saccharin” (Merck & Co., Inc., priority 1975, dated 1980).

Key:
[1] = tested on: elastase-induced emphysema (Porcine pancreatic elastase); experiment: Elastase-Induced Emphysema in the Hamster; type: in vivo, Male Syrian hamsters; conditions: for Lm, Mean ± S.E.: *P<0.05 versus elastase 0.1 mg i.tr. group
papain-induced emphysema = experiment: Papain-Induced Emphysema in the Hamster; type: in vivo, Male Syrian hamsters; conditions: for I.S.A.3 (internal surface area), Mean ± S.E. / Lm (mean linear intercept), Mean ± S.E.: *p<0.05 versus saline i.tr. + papain aerosol group
Text: In view of the test results, infra, the compounds of formula I, supra, are inhibitors of elastase and may be used to treat emphysema and other disorders which may be treated with elastase inhibitors, such as rheumatoid arthritis. The test procedure described below for papain-induced emphysema in the hamster is representative of recognized procedures used to experimentally papain-induce emphysema in the hamster such as that of Goldring et al. "Sequential Anatomic Changes in Lungs Exposed to Papain and other Proteolytic Enzymes" pages 389-410 in Pulmonary Emphysema and Proteolysis, edited by C. Mittman, Academic Press, Inc., New York and London, 1972.
Male Syrian hamsters in the weight range of 70-90 g were used. Food and water was allowed ad libitum except in the exposure chamber. The animals were anesthetized with pentobarbital 60 mg/kg intraperitoneally (i.p.) and saline (control) or 2-(2-furoyl)-saccharin suspended in distilled water in doses of 0.3, 1 and 3 mg was given intratracheally (i.tr.) through a slightly bent capillary tube (Kimax-51 No. 34500). […] Approximately 40 minutes later the animals were exposed to an aerosol of distilled water or 3% papain (Matheson, Coleman and Bell) for 3 hours. The aerosol was generated by two nebulizers (De Vilbiss 40) attached to the sides of a 28 liter chamber and operated at a pressure of 10 lbs. p.s.i. During this period 80-100 ml of solution was used.
Seven days after the exposure the animals were sacrificed with an overdose of pentobarbital, exanguinated by cutting the renal arteries and the lungs were excised, weighed and placed in a cylindrical 0.45 liter plethysmograph with the trachea tied to a conducting tube. The latter was connected to a respiratory pump (E & M Inst. Co., Houston, Tex.) modified to provide static inflation and deflation of the lungs. Transpulmonary pressure was recorded on the abcissa of a Honeywell 530 x-y recorder through a Grass volumetric pressure transducer (PT 5A). Changes in lung volume were recorded on the ordinate of a spirometer (10 ml capacity) connected to a Harvard linear motion transducer.
The specific static compliance (SSC) of the lungs was determined as follows: the lungs were inflated to a pressure of 20 cm H2 O and then deflated at 30 second intervals by steps of 5 cm H2 O pressure. The procedure was repeated and the second pressure volume defation curve was used for analysis. SSC was then calculated according to the formula ΔV/ΔP×W, where ΔV represents change in lung volume (ml) following change in pressure (ΔP) from 5 to 0 cm H2 O, and W is the lung wet weight (g).
Subsequently, the lungs were degassed and fixed intratracheally with formalin at a constant pressure of 15 cm H2 O for at least 48 hours and then dehydrated at the same pressure. All lungs were cleared in toluene, embedded under vacuum in parafin and each pair was blocked together. Two laterosagittal sections (6μ) of each lung were made and stained with hematoxylin and eosin and the extent of emphysematous lesions was quantitatively estimated by measuring the average intra-alveolar distance (mean linear intercept of Lm). A total of 20 random histologic fields were evaluated both vertically and horizontally and subsequently corrected for distortion and shrinkage. The internal surface area of the lungs measured at post-fixation lung volume (V) and corrected to an arbitrary total lung volume of 3 ml (ISA3) was calculated according to the formula 4V/Lm. In all studies statistical evaluation consisted of analysis of variance and significance was taken at P≤0.05.

[2] = tested on: trypsin, chymotrypsin, plasmin, kallikrein, elastase, thrombin and a protease from Aspergillus oryzae; conditions: cited from earlier work
Papain induced emphysema = conditions: hamster; cited from earlier work
papain = conditions: cited from earlier work
[3] = Elastase 0.1 mg + 0.03 mg i.tr.
[4] = Group C: 0.3 mg i.tr. + papain aerosol
[5] = Group D: 1 gm i.tr. (so in the source) + papain aerosol
[6] = Group E: 3 mg i.tr. + papain aerosol

Compound: O=C(c1ccco1)N1C(=O)c2ccccc2S1(=O)=O [2-(2-Furoyl)-saccharin, 2-(2-Furoyl)saccharin]
- development of pulmonary emphysematous lesions ([1]; 1 mg added to elastase prior to i.tr. administration): completely prevented the development of pulmonary emphysematous lesions
- protective effect (histological changes) ([1]; 0.03 to 0.3 mg added to elastase prior to i.tr. administration): partial but statistically significant protective effect
- % inhibition of ΔLm [1, 3]: 48%
- ΔLm [1, 3]: +17 μ
- Lm, Mean ± S.E. [1, 3]: 96.61 ± 3.22 μ
- % inhibition of ΔLm ([1]; Elastase 0.1 mg + 0.1 mg i.tr.): 54%
- ΔLm ([1]; Elastase 0.1 mg + 0.1 mg i.tr.): +15 μ
- Lm, Mean ± S.E. ([1]; Elastase 0.1 mg + 0.1 mg i.tr.): 94.34 ± 4.31 μ
- % inhibition of ΔLm ([1]; Elastase 0.1 mg + 0.3 mg i.tr.): 51%
- ΔLm ([1]; Elastase 0.1 mg + 0.3 mg i.tr.): +16 μ
- Lm, Mean ± S.E. ([1]; Elastase 0.1 mg + 0.3 mg i.tr.): 96.27 ± 2.36 μ
- % inhibition of ΔLm ([1]; Elastase 0.1 mg + 1.0 mg i.tr.): 100%
- ΔLm ([1]; Elastase 0.1 mg + 1.0 mg i.tr.): -2 μ
- Lm, Mean ± S.E. ([1]; Elastase 0.1 mg + 1.0 mg i.tr.): 77.68 ± 2.54 μ
- % Inhibition (S.S.C.) (papain-induced emphysema; 0.3 mg i.tr. + papain aerosol): 34%
- S.S.C. (specific static compliance) ΔV/ΔP × W, Mean ± S.E. (papain-induced emphysema; 0.3 mg i.tr. + papain aerosol): 0.529 ± 0.041
- % Inhibition (S.S.C.) (papain-induced emphysema; 3 mg i.tr. + papain aerosol): 74%
- S.S.C. (specific static compliance) ΔV/ΔP × W, Mean ± S.E. (papain-induced emphysema; 3 mg i.tr. + papain aerosol, *P<0.05 versus saline i.tr. + papain aerosol group): 0.360 ± 0.017
- Inhibition, dose relation and significance (papain-induced emphysema; 0.3, 1 and 3 mg i.tr., significance at P≤0.05): dose related but significant only for doses of 1 and 3 mg
- % Inhibition (S.S.C.) (papain-induced emphysema; 1 gm i.tr. (so in the source) + papain aerosol): 48%
- S.S.C. (specific static compliance) ΔV/ΔP × W, Mean ± S.E. (papain-induced emphysema; 1 gm i.tr. (so in the source) + papain aerosol, *P<0.05 versus saline i.tr. + papain aerosol group): 0.471 ± 0.039
- % inhibition (I.S.A.3) (papain-induced emphysema; [4]): 58%
- % inhibition (Lm) (papain-induced emphysema; [4]): 69%
- I.S.A.3 (internal surface area), Mean ± S.E. (papain-induced emphysema; [4]): 400 + 38 cm^2
- Lm (mean linear intercept), Mean ± S.E. (papain-induced emphysema; [4]): 88.44 ± 2.54 μ
- % inhibition (I.S.A.3) (papain-induced emphysema; [5]): 42%
- % inhibition (Lm) (papain-induced emphysema; [5]): 59%
- I.S.A.3 (internal surface area), Mean ± S.E. (papain-induced emphysema; [5]): 1344 ± 34 cm^2
- Lm (mean linear intercept), Mean ± S.E. (papain-induced emphysema; [5]): 90.87 ± 2.40 μ
- % inhibition (I.S.A.3) (papain-induced emphysema; [6]): 65%
- % inhibition (Lm) (papain-induced emphysema; [6]): 84%
- I.S.A.3 (internal surface area), Mean ± S.E. (papain-induced emphysema; [6]): 1445 ± 54 cm^2
- Lm (mean linear intercept), Mean ± S.E. (papain-induced emphysema; [6]): 84.39 ± 2.68 μ
- development of the emphysematous lesions (papain-induced emphysema; i.tr., evaluated by both physiologic and histologic methods): prevented the development of the emphysematous lestions

Compound: human α1-antitrypsin (HAAT): a glycoprotein in human serum
- inhibitory spectrum [2]: wide inhibitory spectrum covering trypsin, chymotrypsin, plasmin, kallikrein, elastase, thrombin and a protease from Aspergillus oryzae
- Papain induced emphysema inhibited (Papain induced emphysema): inhibited
- inhibition of papain (papain): not inhibited
